Source: the supplement of paper PMC4121296

Key:
Conditions in all cases: exposure: 5-72 hpf
[1] = tested on: Danio rerio embryo (fli1:egfp); assay: body length at 72 hpf (µm); higher = longer body (less growth inhibition)
Description: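 Transgenic fli1:egfp zebrafish embryos (one per well, 384-well plate) exposed statically from 5 to 72 hpf at 28 °C to chemical (0.05-50 µM, 0.1% DMSO); at 72 hpf anesthetized and imaged on ImageXpress; body length of live, hatched, correctly oriented embryos measured by automated MetaXpress journal. Dead/unhatched/misoriented embryos have no value.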

[2] = tested on: Danio rerio embryo (fli1:egfp); assay: arterial (dorsal aorta) circulation score at 72 hpf (normalized DA-Max (arbitrary units)); higher = more circulation
Description: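 fli1:egfp zebrafish embryos exposed 5-72 hpf to chemical (0.05-50 µM, 0.1% DMSO); arterial circulation at 72 hpf quantified from stream acquisitions of the dorsal aorta by FFT-based analysis (DA-Max, normalized dorsal aorta signal); only concentrations passing survival/body-length criteria analyzed.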

[3] = tested on: Danio rerio embryo (fli1:egfp); assay: heart rate at 72 hpf (beats per minute); higher = faster heart rate
Description: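 fli1:egfp zebrafish embryos exposed 5-72 hpf to chemical (0.05-50 µM, 0.1% DMSO) in 384-well plates; heart rate at 72 hpf quantified from stream acquisitions by semi-automated MetaXpress journal (peak counting); only embryos in concentrations passing survival/body-length criteria analyzed.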

[4] = tested on: Danio rerio embryo (fli1:egfp); assay: pericardial area at 72 hpf (image area units (not stated)); higher = larger pericardial area (edema)
Description: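 fli1:egfp zebrafish embryos exposed 5-72 hpf to chemical (0.05-50 µM, 0.1% DMSO); pericardial area at 72 hpf measured by semi-automated MetaXpress journal (increase indicates edema).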

[5] = tested on: Danio rerio embryo (fli1:egfp); assay: intersegmental vessel area normalized to body length at 72 hpf (ISV area / body length (normalized units)); higher = more vessel area
Description: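 fli1:egfp zebrafish embryos exposed 5-72 hpf to chemical (0.05-50 µM, 0.1% DMSO); intersegmental vessel (ISV) eGFP area quantified by MetaXpress journal at 72 hpf and normalized to body length.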

CCOC(=O)C(C)OC(=O)c1cc(Oc2ccc(C(F)(F)F)cc2Cl)ccc1[N+](=O)[O-] (stereo unspecified) [Lactofen]
Conditions	arterial, [2]	body length at 72 hpf, [1]	heart rate at 72 hpf, [3]	intersegmental vessel area normalized, [5]	pericardial area at 72 hpf, [4]
0.05 µM	8.21	3000	189	84.8	13400
0.098 µM	7.39	3000	187	87.9	17300
0.195 µM	8.26	2990	191	81.5	15800
0.39 µM	8.42	2940	188	83.3	15800
0.78 µM	5.92	2950	191	82.4	19300
1.56 µM	6.43	2980	193	85.2	19800
3.125 µM	5.46	2960	190	88	21500
6.25 µM	4.85	2910	188	92.9	21200
12.5 µM	4.13	2910	187	99.7	23900

CC(C)Oc1cc(-n2nc(C(C)(C)C)oc2=O)c(Cl)cc1Cl [Oxadiazon]
Conditions	arterial, [2]	body length at 72 hpf, [1]	heart rate at 72 hpf, [3]	intersegmental vessel area normalized, [5]	pericardial area at 72 hpf, [4]
0.05 µM	14.6	3090	179	85.1	14800
0.098 µM	14	3060	184	88.1	13700
0.195 µM	13.8	3090	190	90.3	15400
0.39 µM	14.5	3060	186	82.3	15400
0.78 µM	13.1	3040	182	82.4	16500
1.56 µM	15.4	2950	183	83.4	14900
3.125 µM	13.2	3060	188	85.6	15800
6.25 µM	14.1	3120	190	90.4	16000
12.5 µM	11.5	3000	181	94.5	17300
25 µM	9.56	2960	155	90.2	16800

CCOc1cc(Oc2ccc(C(F)(F)F)cc2Cl)ccc1[N+](=O)[O-] [Oxyfluorfen]
Conditions	arterial, [2]	body length at 72 hpf, [1]	heart rate at 72 hpf, [3]	intersegmental vessel area normalized, [5]	pericardial area at 72 hpf, [4]
0.0244 µM	12.2	3050	183	86.8	14300
0.05 µM	15	3020	178	86.7	14500
0.098 µM	13.5	2990	180	88.8	14900
0.195 µM	15.8	2990	187	79	14500
0.39 µM	14.3	2990	185	95.7	15500
0.78 µM	13.4	3000	192	90.7	13400
1.56 µM	14.4	2850	190	89.4	13400
3.125 µM	12	2980	193	87.2	16200
6.25 µM	10.5	2960	194	100	15900
12.5 µM	7.87	2840	192	90.5	15300
25 µM	–	2660	–	–	–

CCOC(=O)COc1cc(-c2nn(C)c(OC(F)F)c2Cl)c(F)cc1Cl [Pyraflufen-ethyl]
Conditions	arterial, [2]	body length at 72 hpf, [1]	heart rate at 72 hpf, [3]	intersegmental vessel area normalized, [5]	pericardial area at 72 hpf, [4]
0.05 µM	10.9	3030	171	83.6	15700
0.098 µM	8.57	3020	174	92.3	15400
0.195 µM	10.5	3020	174	84.6	15300
0.39 µM	9.67	3040	167	86.7	17100
0.78 µM	10.2	2950	169	81.6	16800
1.56 µM	7.3	2980	169	85.2	20600
3.125 µM	4.92	2960	160	86.2	20000
6.25 µM	3.84	2890	163	86	25300
25 µM	3.2	2790	148	96.9	25400
